Source: ChEMBL document CHEMBL1201862, “PubChem BioAssay data set” (2004)
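Step 1: Grow cells in 96-well plates. Step 2: Expose to compound for 48 hours at 5 concentrations. Step 3: Interpolate endpoints linearly; if unreached, use highest concentration. GI50: concentration for 50% inhibition of growth.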 Active and inactive are the calls of the source. Cut-off read from the data, not from the text of the source: active = GI50 up to about 1.1 µM and inactive = higher.

Assays:
Experiment in all cases: NCI tumour cell line growth inhibition, 48 h
SF-295 = system: SF-295
UO-31 = system: UO-31
NCI-H226 = system: NCI-H226
Hs-578T = system: Hs-578T
M14 = system: M14
ACHN = system: ACHN
MDA-MB-231 = system: MDA-MB-231
BT-549 = system: BT-549
DU-145 = system: DU-145
A498 = system: A498
MCF7 = system: MCF7
RPMI-8226 = system: RPMI-8226
786-0 = system: 786-0
SW-620 = system: SW-620
HCT-15 = system: HCT-15
NCI-H460 = system: NCI-H460
Malme-3M = system: Malme-3M
SK-MEL-5 = system: SK-MEL-5
MOLT-4 = system: MOLT-4
SF-268 = system: SF-268
COLO 205 = system: COLO 205
UACC-257 = system: UACC-257
MDA-MB-435 = system: MDA-MB-435
OVCAR-5 = system: OVCAR-5
HCT-116 = system: HCT-116
SK-MEL-2 = system: SK-MEL-2
OVCAR-3 = system: OVCAR-3
TK-10 = system: TK-10
HCC 2998 = system: HCC 2998
SF-539 = system: SF-539
IGROV-1 = system: IGROV-1
EKVX = system: EKVX
SN12C = system: SN12C
CAKI-1 = system: CAKI-1
NCI/ADR-RES = system: NCI/ADR-RES
PC-3 = system: PC-3
SK-OV-3 = system: SK-OV-3
NCI-H522 = system: NCI-H522
HL-60 = system: HL-60
HT-29 = system: HT-29
SK-MEL-28 = system: SK-MEL-28
MDA-N = system: MDA-N
A549 = system: A549
OVCAR-4 = system: OVCAR-4
T47D = system: T47D
K562 = system: K562
OVCAR-8 = system: OVCAR-8
KM12 = system: KM12
LOX IMVI = system: LOX IMVI
CCRF-CEM = system: CCRF-CEM
SNB-19 = system: SNB-19
HOP-92 = system: HOP-92
U-251 = system: U-251
UACC-62 = system: UACC-62
NCI-H23 = system: NCI-H23
SNB-75 = system: SNB-75
HOP-62 = system: HOP-62
RXF 393 = system: RXF 393

Q: With CCCCc1ccc(Nc2nc(N)c3[nH]cnc3n2)cc1 as the compound, how does the GI50 (SF-295) read?
A: The GI50 was 25.9 µM (inactive).

Q: And the GI50 (UO-31)?
A: The GI50 was 12.7 µM (inactive).

Q: And the GI50 (NCI-H226)?
A: The GI50 was 8.73 µM (inactive).

Q: And the GI50 (Hs-578T)?
A: The GI50 was 17.7 µM (inactive).

Q: What about the GI50 (M14) of the same compound?
A: Its GI50 is 31.2 µM (inactive).

Q: What about the GI50 (ACHN) of the same compound?
A: The GI50 was 17 µM (inactive).

Q: And the GI50 (MDA-MB-231)?
A: The GI50 was 19.8 µM (inactive).

Q: What about the GI50 (BT-549) of the same compound?
A: The GI50 was 21.5 µM (inactive).

Q: And the GI50 (DU-145)?
A: Its GI50 is 19.2 µM (inactive).

Q: And the GI50 (A498)?
A: The GI50 was 11.2 µM (inactive).

Q: What about the GI50 (MCF7) of the same compound?
A: Its GI50 is 18.4 µM (inactive).

Q: And the GI50 (RPMI-8226)?
A: Its GI50 is 25.4 µM (inactive).

Q: What about the GI50 (786-0) of the same compound?
A: The GI50 was 17.2 µM (inactive).

Q: And the GI50 (SW-620)?
A: The GI50 was 30.3 µM (inactive).

Q: And the GI50 (HCT-15)?
A: Its GI50 is 25 µM.

Q: And the GI50 (NCI-H460)?
A: Its GI50 is 22.9 µM (inactive).

Q: What about the GI50 (Malme-3M) of the same compound?
A: Its GI50 is 22.2 µM (inactive).

Q: And the GI50 (SK-MEL-5)?
A: The GI50 was 17 µM (inactive).

Q: What about the GI50 (MOLT-4) of the same compound?
A: Its GI50 is 0.925 µM (active).

Q: What about the GI50 (SF-268) of the same compound?
A: Its GI50 is 14.9 µM (inactive).

Q: And the GI50 (COLO 205)?
A: Its GI50 is 18.3 µM (inactive).

Q: And the GI50 (UACC-257)?
A: The GI50 was 26.5 µM (inactive).

Q: What about the GI50 (MDA-MB-435) of the same compound?
A: The GI50 was 21.5 µM (inactive).

Q: And the GI50 (OVCAR-5)?
A: Its GI50 is 30.5 µM (inactive).

Q: And the GI50 (HCT-116)?
A: Its GI50 is 17.1 µM (inactive).

Q: What about the GI50 (SK-MEL-2) of the same compound?
A: Its GI50 is 22.4 µM (inactive).

Q: What about the GI50 (OVCAR-3) of the same compound?
A: The GI50 was 20.7 µM (inactive).

Q: What about the GI50 (TK-10) of the same compound?
A: The GI50 was 16.4 µM (inactive).

Q: And the GI50 (HCC 2998)?
A: The GI50 was 24 µM (inactive).

Q: And the GI50 (SF-539)?
A: Its GI50 is 18.8 µM (inactive).

Q: What about the GI50 (IGROV-1) of the same compound?
A: Its GI50 is 12.1 µM (inactive).

Q: And the GI50 (EKVX)?
A: The GI50 was 19.6 µM (inactive).

Q: And the GI50 (SN12C)?
A: The GI50 was 13.9 µM (inactive).

Q: And the GI50 (CAKI-1)?
A: The GI50 was 15.5 µM (inactive).

Q: And the GI50 (NCI/ADR-RES)?
A: Its GI50 is 15.2 µM (inactive).

Q: What about the GI50 (PC-3) of the same compound?
A: Its GI50 is 15 µM (inactive).

Q: What about the GI50 (SK-OV-3) of the same compound?
A: The GI50 was 20.8 µM (inactive).

Q: And the GI50 (NCI-H522)?
A: The GI50 was 14.7 µM (inactive).

Q: And the GI50 (HL-60)?
A: The GI50 was 18.7 µM (inactive).

Q: And the GI50 (HT-29)?
A: The GI50 was 13.8 µM (inactive).

Q: And the GI50 (SK-MEL-28)?
A: Its GI50 is 22.5 µM (inactive).

Q: And the GI50 (MDA-N)?
A: The GI50 was 16.9 µM (inactive).

Q: What about the GI50 (A549) of the same compound?
A: The GI50 was 21.3 µM (inactive).

Q: What about the GI50 (OVCAR-4) of the same compound?
A: The GI50 was 24.5 µM (inactive).

Q: And the GI50 (T47D)?
A: Its GI50 is 35.1 µM (inactive).

Q: And the GI50 (K562)?
A: Its GI50 is 28.1 µM (inactive).

Q: And the GI50 (OVCAR-8)?
A: Its GI50 is 15.8 µM (inactive).

Q: What about the GI50 (KM12) of the same compound?
A: Its GI50 is 18.3 µM (inactive).

Q: And the GI50 (LOX IMVI)?
A: The GI50 was 18.4 µM (inactive).

Q: And the GI50 (CCRF-CEM)?
A: The GI50 was 21.7 µM (inactive).

Q: What about the GI50 (SNB-19) of the same compound?
A: The GI50 was 17.8 µM (inactive).

Q: And the GI50 (HOP-92)?
A: Its GI50 is 15.5 µM (inactive).

Q: And the GI50 (U-251)?
A: Its GI50 is 24.4 µM (inactive).

Q: What about the GI50 (UACC-62) of the same compound?
A: Its GI50 is 17.2 µM (inactive).

Q: What about the GI50 (NCI-H23) of the same compound?
A: Its GI50 is 17.1 µM (inactive).

Q: How did the GI50 (SF-295) turn out when Clc1nc2n(c1/C=C/c1cccs1)CCS2 was run?
A: The GI50 was 29.6 µM (inactive).

Q: What about the GI50 (UO-31) of the same compound?
A: Its GI50 is 31 µM (inactive).

Q: And the GI50 (NCI-H226)?
A: The GI50 was 31.6 µM (inactive).

Q: And the GI50 (Hs-578T)?
A: Its GI50 is 30.1 µM (inactive).

Q: What about the GI50 (SNB-75) of the same compound?
A: The GI50 was 55 µM (inactive).

Q: And the GI50 (M14)?
A: Its GI50 is 38.7 µM (inactive).

Q: What about the GI50 (ACHN) of the same compound?
A: Its GI50 is 37.5 µM (inactive).

Q: And the GI50 (MDA-MB-231)?
A: Its GI50 is 6.41 µM (inactive).

Q: What about the GI50 (BT-549) of the same compound?
A: The GI50 was 26.6 µM (inactive).

Q: And the GI50 (DU-145)?
A: The GI50 was 28.6 µM (inactive).

Q: And the GI50 (A498)?
A: Its GI50 is 20 µM (inactive).

Q: What about the GI50 (MCF7) of the same compound?
A: The GI50 was 30.8 µM (inactive).

Q: And the GI50 (RPMI-8226)?
A: The GI50 was 15.7 µM (inactive).

Q: What about the GI50 (786-0) of the same compound?
A: The GI50 was 20 µM (inactive).

Q: And the GI50 (SW-620)?
A: Its GI50 is 26.9 µM (inactive).

Q: What about the GI50 (HCT-15) of the same compound?
A: The GI50 was 37 µM.

Q: What about the GI50 (Malme-3M) of the same compound?
A: The GI50 was 90.8 µM (inactive).

Q: And the GI50 (SK-MEL-5)?
A: Its GI50 is 17.1 µM (inactive).

Q: What about the GI50 (MOLT-4) of the same compound?
A: Its GI50 is 11.3 µM (inactive).

Q: What about the GI50 (SF-268) of the same compound?
A: Its GI50 is 40.4 µM (inactive).

Q: And the GI50 (COLO 205)?
A: The GI50 was 37.8 µM (inactive).

Q: And the GI50 (UACC-257)?
A: The GI50 was 57.5 µM (inactive).

Q: What about the GI50 (MDA-MB-435) of the same compound?
A: Its GI50 is 31.1 µM (inactive).

Q: What about the GI50 (OVCAR-5) of the same compound?
A: Its GI50 is 27.3 µM (inactive).

Q: What about the GI50 (HOP-62) of the same compound?
A: The GI50 was 53.7 µM (inactive).

Q: What about the GI50 (HCT-116) of the same compound?
A: Its GI50 is 25.4 µM (inactive).

Q: And the GI50 (SK-MEL-2)?
A: Its GI50 is > 100 µM (inactive).

Q: What about the GI50 (OVCAR-3) of the same compound?
A: Its GI50 is 23.5 µM (inactive).

Q: What about the GI50 (TK-10) of the same compound?
A: The GI50 was 36 µM (inactive).

Q: And the GI50 (HCC 2998)?
A: Its GI50 is 35.5 µM (inactive).

Q: What about the GI50 (IGROV-1) of the same compound?
A: The GI50 was 32 µM (inactive).

Q: What about the GI50 (EKVX) of the same compound?
A: Its GI50 is 5.43 µM (inactive).

Q: What about the GI50 (SN12C) of the same compound?
A: Its GI50 is 31.4 µM (inactive).

Q: And the GI50 (CAKI-1)?
A: The GI50 was 18.8 µM (inactive).

Q: And the GI50 (NCI/ADR-RES)?
A: The GI50 was 29.6 µM (inactive).

Q: And the GI50 (PC-3)?
A: The GI50 was 40.8 µM (inactive).

Q: And the GI50 (SK-OV-3)?
A: The GI50 was 30.7 µM (inactive).

Q: What about the GI50 (NCI-H522) of the same compound?
A: The GI50 was 35.1 µM (inactive).

Q: What about the GI50 (HL-60) of the same compound?
A: The GI50 was 6 µM (inactive).

Q: What about the GI50 (HT-29) of the same compound?
A: The GI50 was 24.3 µM (inactive).

Q: What about the GI50 (SK-MEL-28) of the same compound?
A: The GI50 was 34.8 µM (inactive).

Q: What about the GI50 (RXF 393) of the same compound?
A: Its GI50 is 40.8 µM (inactive).

Q: What about the GI50 (MDA-N) of the same compound?
A: The GI50 was 36.5 µM (inactive).

Q: What about the GI50 (A549) of the same compound?
A: The GI50 was 34.5 µM (inactive).

Q: What about the GI50 (OVCAR-4) of the same compound?
A: The GI50 was 64 µM (inactive).

Q: What about the GI50 (T47D) of the same compound?
A: Its GI50 is 17 µM (inactive).

Q: What about the GI50 (K562) of the same compound?
A: The GI50 was 47.2 µM (inactive).

Q: What about the GI50 (OVCAR-8) of the same compound?
A: Its GI50 is 29.7 µM (inactive).

Q: And the GI50 (KM12)?
A: The GI50 was 37.7 µM (inactive).

Q: What about the GI50 (CCRF-CEM) of the same compound?
A: The GI50 was 10.9 µM (inactive).

Q: What about the GI50 (SNB-19) of the same compound?
A: Its GI50 is 43.6 µM (inactive).

Q: And the GI50 (U-251)?
A: Its GI50 is 28.1 µM (inactive).

Q: And the GI50 (UACC-62)?
A: Its GI50 is 37.3 µM (inactive).

Q: And the GI50 (NCI-H23)?
A: The GI50 was 29 µM (inactive).
